This is an account of results in patent US20230364033A1, “COMPOUNDS FOR TREATING VIRUS INFECTIONS” (Meletios Therapeutics, priority 2020, published 2023).

By pIC50 is commonly meant −log10 of the IC50, conventionally taken in molar units.

The subject of data set [1] is human α-coronavirus 229E. Description: Viral inhibition (CPE / cell viability readout) in 16HBE cells infected by α-coronavirus 229E. The class given is cell-based. As to conditions: for pEC50: 120 h, read-out: EC50 (concentration which results in 50% viral inhibition). How it is done: The EC50 and CC50 of SR-31747 were determined in an in vitro model of infection by human α-coronavirus 229E.
Briefly, a dilution series of SR-31747 (8-point, half-log dose titration, 30 μM-10 nM) was added to 16HBE cells. Vehicle and positive control (remdesivir, 8-point, half-log dose titration, 20 μM-6.4 nM) wells were set up to control for any influence of the compounds alone on cell viability. Cells were visually inspected for the appearance of any cytopathic effects (CPE). A cell viability assay was performed once CPE was complete.
The readouts were: • EC50: The concentration which results in 50% viral inhibition, following the addition of compounds; • CC50: The concentration which results in 50% cell viability, following the addition of compounds; • Selectivity index: Calculated as CC50/EC50.
Protocol: • 1. 16HBE cells permissible to infection by α-coronavirus 229E were grown and seeded into 96-well plates to a confluency of 80-90%. • 2. The compounds SR-31747 and remdesivir (positive control) were serially diluted half-log into 8 concentrations in total and added to cells for 1 hour at 37° C. • 3. After 1 hour, α-coronavirus 229E was added at 100xTCID50. A mock infection of blank media was added to the uninfected controls. • 4. After infection, the virus/compound was removed and an overlay medium was added, with equivalent concentrations of the compounds. • 5. […] Once CPE was observed, supernatants were taken and stored at −80° C. • 7. A cell viability assay was then performed on all conditions, with cells receiving the treatment compared to the vehicle treated and uninfected controls. Calculations are as follows:
% viral inhibition=[(A-B)/(C-B)] x100, where: • A: mean optical density of test, B: mean optical density of virus controls, C: mean optical density of cell controls. • Negative values occur when A<B, due either to natural variation or compound toxicity.

Data set [2] can be described thus: in vitro. To be noted: human.
Data set [3] relates to SARS-CoV-2. The experiment in a line: microbe, parasite or virus in culture. To be noted: Severe acute respiratory syndrome coronavirus 2; A549-ACE2 cells, MOI 0,1, 72 hours, viral replication inhibition; read-out: RTqPCR: IC50. The class given is cell-based.
In data set [4] the test system is SARS-CoV-2. Description: SARS-CoV-2-infected golden hamster model of COVID-19. To be noted: infected hamsters. The class given is in vivo. The source says:
SR-31747 was used freshly diluted in a diluent consisting of […], 5% ethanol and 5% tween-80.
24 male hamsters RjHan:AURA SPF were acclimated during 7 days and distributed in 4 groups of 6 hamsters each: • Group 1: Infected by SARS-CoV-2 and treated by SR-31747 • Group 2: Infected by SARS-CoV-2 and treated by diluent (negative control) • Group 3: Non-infected and treated by SR-31747 • Group 4: Non-infected and treated by diluent
On day 0, hamsters were infected intranasally by SARS-CoV-2 and received a first intraperitoneal injection of SR-31747 at 40 mg/kg.
On days 1, 2 and 3 the hamsters received an intraperitoneal injection of SR-31747 at 40 mg/kg. On day 4 sera and lungs from the hamsters were sampled.
From day 0 of day 4, the body temperature of the hamsters was measured at both flanks using a touchless infrared thermometer and a cumulative clinical score was determined (ruffled fur (no=0 or yes=1), slow movements (no=0, yes=1), apathy (no=0, yes=1), absence of rearing/exploration (no=0, yes=1)).
An olfactory test was conducted on day 3 preceded by a day of fasting. Briefly, cereals were buried in the litter of an individual cage and the latency to find the hidden cereals by the hamsters was measured.

Molecules are shown by their SMILES. pEC50, pIC50: −log10 of the molar value. Where two headings read alike, the source gives them in different places.

Consider `CCC(CC)COC(=O)[C@H](C)N[P@](=O)(OC[C@H]1O[C@@](C#N)(c2ccc3c(N)ncnn23)[C@H](O)[C@@H]1O)Oc1ccccc1` [Remdesivir, remdesivir, reference compound], for which the pEC50 in data set [1] (16HBE) was 6.47. Moreover, the CC50 in data set [2] is above 20000 nM.

In the case of `CCN(C/C=C\c1ccc(C2CCCCC2)c(Cl)c1)C1CCCCC1` [SR-31747, N-[(Z)-3-(3-chloro-4-cyclohexylphenyl)prop-2-enyl]-N-ethylcyclohexanamine], the pIC50 in data set [3] was 5.54. Besides, the pEC50 in data set [1] (16HBE cells, α-coronavirus 229E at 100xTCID50, about 5 days) is 5.87. Further, the “Selectivity index (CC50/EC50)” value in data set [1] (α-coronavirus 229E, 16HBE cells) amounted to 5. Besides, in data set [4] (40 mg/kg intraperitoneal days 0-3, day 4, p=0,009 Mann-Whitney test), the Cumulative clinical score entry was “significantly reduces”. In addition, in data set [4] (40 mg/kg intraperitoneal, day 3), the “Olfactory test: latency to find hidden cereals” value is reported as “alleviates the olfactory dysfunction”. For the same compound, the Lung weight result in data set [4] (40 mg/kg intraperitoneal, day 4, increase due to infection) is recorded as “significantly alleviated”. Further, the Body temperature result in data set [4] (40 mg/kg intraperitoneal, days 2 and 4) is “significantly increases”.
